Assay [1] has as its target T1, tNhe3a (trout Na+/H+ exchanger Nhe3a) (Oncorhynchus mykiss, UniProt A4GWV2).
T1 construct: gene NHE3; GFP-tagged tNhe3a (cDNA identical to NM_001130995) stably expressed in NHE-deficient AP-1 cells
T1 sequence (A4GWV2 1-752): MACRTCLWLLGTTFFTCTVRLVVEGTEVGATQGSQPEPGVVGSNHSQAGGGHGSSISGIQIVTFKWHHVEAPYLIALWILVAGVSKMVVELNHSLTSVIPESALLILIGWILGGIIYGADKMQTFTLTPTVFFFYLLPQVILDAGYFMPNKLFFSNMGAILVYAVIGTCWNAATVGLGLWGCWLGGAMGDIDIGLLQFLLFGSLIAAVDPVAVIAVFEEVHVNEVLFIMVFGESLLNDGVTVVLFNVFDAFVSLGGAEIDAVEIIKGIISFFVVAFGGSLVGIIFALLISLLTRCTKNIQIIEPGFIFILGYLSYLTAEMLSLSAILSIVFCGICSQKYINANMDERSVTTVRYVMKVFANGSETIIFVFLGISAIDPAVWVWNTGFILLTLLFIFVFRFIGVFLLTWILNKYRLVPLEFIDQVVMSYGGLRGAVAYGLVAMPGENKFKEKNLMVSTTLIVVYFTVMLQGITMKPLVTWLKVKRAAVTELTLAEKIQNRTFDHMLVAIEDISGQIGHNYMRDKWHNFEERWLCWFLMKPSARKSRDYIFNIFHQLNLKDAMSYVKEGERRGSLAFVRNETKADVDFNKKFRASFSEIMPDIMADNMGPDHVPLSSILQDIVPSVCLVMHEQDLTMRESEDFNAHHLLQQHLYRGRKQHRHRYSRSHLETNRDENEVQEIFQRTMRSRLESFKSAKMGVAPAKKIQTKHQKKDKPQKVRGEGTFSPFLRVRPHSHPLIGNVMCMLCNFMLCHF
In words: two-pulse ammonium chloride acid-load pHi recovery assay (BCECF) in stably transfected AP-1 cells, background subtracted. Format: cell-based.

Assay [2] has as its target T2, tNhe3b (trout Na+/H+ exchanger Nhe3b) (Oncorhynchus mykiss, UniProt B6VDZ5).
T2 construct: GFP-tagged tNhe3b (cDNA identical to FJ376630.1) stably expressed in NHE-deficient AP-1 cells
T2 sequence (B6VDZ5 1-842): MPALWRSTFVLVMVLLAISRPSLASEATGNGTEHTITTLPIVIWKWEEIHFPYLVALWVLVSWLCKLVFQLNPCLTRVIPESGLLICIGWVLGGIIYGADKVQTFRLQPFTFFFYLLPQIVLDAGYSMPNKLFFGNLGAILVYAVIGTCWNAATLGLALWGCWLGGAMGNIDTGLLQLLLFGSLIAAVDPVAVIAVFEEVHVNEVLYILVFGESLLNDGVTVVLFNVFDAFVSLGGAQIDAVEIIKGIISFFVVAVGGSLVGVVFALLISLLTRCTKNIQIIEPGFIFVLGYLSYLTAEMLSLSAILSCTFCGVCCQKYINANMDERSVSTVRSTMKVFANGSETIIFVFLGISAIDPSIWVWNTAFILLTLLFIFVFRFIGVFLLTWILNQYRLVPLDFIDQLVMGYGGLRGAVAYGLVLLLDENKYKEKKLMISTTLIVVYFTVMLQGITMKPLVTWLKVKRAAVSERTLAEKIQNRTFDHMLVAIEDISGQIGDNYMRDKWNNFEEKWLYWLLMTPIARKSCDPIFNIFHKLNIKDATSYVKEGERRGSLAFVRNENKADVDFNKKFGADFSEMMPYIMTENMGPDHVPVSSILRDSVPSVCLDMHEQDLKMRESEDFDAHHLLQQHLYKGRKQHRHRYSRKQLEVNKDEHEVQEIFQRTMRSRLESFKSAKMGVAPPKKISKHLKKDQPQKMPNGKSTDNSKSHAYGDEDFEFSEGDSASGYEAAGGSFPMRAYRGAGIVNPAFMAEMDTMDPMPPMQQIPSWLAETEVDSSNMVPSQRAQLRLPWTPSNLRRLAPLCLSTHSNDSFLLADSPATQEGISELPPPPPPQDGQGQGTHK
In words: two-pulse ammonium chloride acid-load pHi recovery assay (BCECF) in stably transfected AP-1 cells; significant only at […]. In kind it is cell-based.

What is called IC50 is the concentration that inhibits the measured activity by half. Lower therefore signals greater potency.

In assay [1], `CCN(c1nc(N)c(C(=O)NC(=N)N)nc1Cl)C(C)C` [EIPA] registered an IC50 of about 44 µM.

For `N=C(N)NC(=O)c1nc(Cl)c(N)nc1N` [amiloride, N-amidino-3,5-diamino-6-chloropyrazinecarboxamide], the half-maximal inhibitory concentration (IC50) was about 335 µM in assay [2] and about 9.3 µM in assay [1].
